Like-named read-outs stand apart in the source and are kept apart here.
Key:
[1] = system: skin of vitiligo patients; test: histology of skin of vitiligo patients undergoing depigmentation therapy; assay type: in vivo, human
Text: (§1) No reaction occurs in depigmented skin. This entails that the inflammatory reaction is directed towards something, what is only present in melanocytes, e.g. tyrosinase, TRP1 and/or TRP2. However, auto-antibodies to tyrosinase, TRP1 and TRP2 have been reported to occur at low frequencies, or not at all, in vitiligo patients (37,38,39,40,41).

[2] = system: melanocytes and keratinocytes; test: in vitro toxic effects on melanocytes and keratinocytes; assay type: cell-based
Text: as §1

skin = settings: cases in workers of polymer or leather industries; cited from earlier work
[3] = system: pigmented skin / depigmented skin; test: in vivo inflammatory response of pigmented and depigmented skin; parameters: species or system human
Text: as §1

melanoma = settings: cited from earlier work; for toxicity of intra arterial infusion: intra arterial infusions in the lower limbs, high doses; for efficacy as chemotherapeutic in melanoma: metastatic/disseminated melanoma, intra arterial infusion of high doses
metastatic melanoma = settings: immunotherapy; cited from earlier work

Oc1ccc(OCc2ccccc2)cc1 [Monobenzone, p-(benzyloxy)phenol]
histology of skin: infiltrate [1]: dense infiltrate consisting of mainly CD8^+ cells and macrophages
granulocytes in the skin infiltrate ([1]; granulocytes would indicate a toxic (orthoergic) reaction): no granulocytes
sensitivity of melanocytes and keratinocytes to the toxic effects [2]: equally sensitive
depigmentation on exposure of the skin (skin): causes leukoderma and can induce vitiligo-like depigmentation
inflammatory reaction ([3]; depigmented skin): No reaction
inflammatory response with erythema, edema and scaliness ([3]; pigmented skin): only seen in the pigmented skin

CC(C)(C)c1ccc(O)c(O)c1 [TBC, 4-tert-butylcatechol]
depigmentation on exposure of the skin (skin): causes leukoderma and can induce vitiligo-like depigmentation

COc1ccc(O)cc1 [4-HA, 4-hydroxyanisole]
toxicity of intra arterial infusion (melanoma): serious renal and hepatic toxicity
toxicity of intra arterial infusion (melanoma; listed as 4-Hydroxyanisole): severe toxic events
efficacy as chemotherapeutic in melanoma (melanoma): without success
efficacy as chemotherapeutic in melanoma (melanoma; listed as 4-Hydroxyanisole): not effective

B1: interferon (IFNγ): interferon (IFNγ) used as immunotherapy for metastatic melanoma (protein, UniProt P01579 24-161, looked up)
Interferon gamma: QDPYVKEAENLKKYFNAGHSDVADNGTLFLGILKNWKEESDRKIMQSQIVSFYFKLFKNFKDDQSIQKSVETIKEDMNVKFFNSNKKKRDDFEKLTNYSVTDLNVQRKAIHELIQVMAELSPAAKTGKRKRSQMLFRG
response rate (metastatic melanoma): approximately 15%

Source: patent US9393219B2, “Monophenols and benzenediols sensitization of immune system against haptenized melanoma antigens” (ACADEMISCH ZIEKENHUIS BIJ DE UNIVERSITEIT VAN AMSTERDAM, priority 2005, dated 2016)
